In data set [1] the test system is centrosome-amplified (4NCA) DLD1 cells. Description: Multipolar spindle assay (4NCA cell line). The data set is classed as cell-based, human. The source says:
(§1) The cellular models consisted of chromosomally stable human colon cancer DLD1 diploid (2N) and tetraploid (4N) cells, along with tetraploid centrosome -amplified (4NCA) DLD1 cells and DLD1 HSET knockout (KO) cells. DLD1 2N and 4N cells were generated and characterized as previously described.[27],[41],[42] In order to generate 4NCA cells, we used dihydro-cytochalasin B (DCB) to transiently block cytokinesis and induce tetraploidisation and centrosome amplification in DLD1 cells. Centrosome amplification in 4NCA cells is transient and therefore they were generated from 2N cells for each run of the assay.[27] The DLD1 HSET KO cells were knockout clones generated by CRISPR and validated by sequencing to have a homozygous deletion in the KIFC1 gene.
(§2) Inhibition of HSET-mediated clustering was measured using a phenotypic assay measuring the formation of multipolar metaphase spindles in DLD1 cells with (4NCA) or without (4N) centrosome amplification. 4NCA cells were generated by treating 2N DLD1 cells with 2 μΜ DCB for 24 h, washed, and released in growth media for 24 h. 4N and 4NCA DLD1 cells were plated in 96-well ibidi μ-Clear plates (IB-89626, ibidi) with a no. 1.5 polymer coverslip bottom with optimal imaging properties. To enrich the mitotic population, cells were first treated for 3.5 h with 8 μM pro-TAME (I-440-01M, R&D system), an inhibitor of APC/C that transiently arrests cells in metaphase without affecting the structure of the spindle. Following the initial arrest, cells were treated with HSET compounds in the presence of 8 μM MG-132 (S2619, SelleckChem), a proteasome inhibitor that helps to maintain the metaphase arrest, where the number of spindle poles/cell can be optimally quantified by an automated segmentation analysis.
(§3) Cells were then fixed in methanol and stained for 3 h for mitotic pole marker aurora A (1:1000 610939 mouse anti-IAK1, BD Biosciences) and phosphorylated histone H3 (1:1500 ab47297 anti-histone H3 pS10, Abcam) as a marker of mitotic cells in 1.5% FBS in PBS. Following primary antibody treatment, cells were incubated with secondary antibodies Alexa Fluor 488 goat antimouse and Alexa Fluor 555 goat antirabbit (1:1500, A11029 and A21429, respectively, Life Technologies) together with 1 μg/mL DAPI (D9542, Sigma) in 1.5% FBS in PBS. Image acquisition was performed at 10× using the GE INCELL 2200 High Content Imaging System (Cytiva) and analyzed using the InCell Investigator software. Mitotic cells were identified by high pHH3 staining and were scored as multipolar if they had more than two mitotic spindle poles. The percentage of multipolar mitoses was calculated by dividing the number of multipolar mitoses by the total of all visible mitoses in one well of a 96-well plate (n > 100 for each replicate, two replicates per concentration point).

Data set [2] concerns non-centrosome amplified DLD1 (4N) cells. Description: Multipolar spindle assay (4N cell line). In kind it is cell-based, human. Conditions: for % Multipolarity above baseline @ 15 mM (4N cells): supplementary CSV; for % multipolarity above baseline @ 15 μM (4N cells): 4N DLD1 cells (Table 4).
Description: as §1, §2, §3

For data set [3], the target named is T1, GST-tagged Eg5 motor domain (Homo sapiens, UniProt P52732).
T1 construct: 4 nM GST-tagged Eg5 motor domain protein (Cytoskeleton, EG01); purchased Cytoskeleton EG01
T1 sequence (P52732 18-359 limits assumed): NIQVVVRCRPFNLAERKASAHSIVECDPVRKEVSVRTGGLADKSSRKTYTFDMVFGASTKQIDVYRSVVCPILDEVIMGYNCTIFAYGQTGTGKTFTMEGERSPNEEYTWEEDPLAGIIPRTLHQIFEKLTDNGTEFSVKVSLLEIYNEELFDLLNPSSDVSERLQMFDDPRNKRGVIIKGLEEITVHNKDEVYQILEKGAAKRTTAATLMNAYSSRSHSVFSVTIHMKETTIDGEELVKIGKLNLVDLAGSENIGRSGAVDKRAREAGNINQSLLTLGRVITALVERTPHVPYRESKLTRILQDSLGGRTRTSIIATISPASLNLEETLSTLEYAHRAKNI
Description: ADP-Glo Eg5 assay (4.8 μM ATP). Conditions: for IC50: preformed microtubules, 4.8 μM ATP (Table 4). In kind it is biochemical. The method, then: (§4) The HSET or Eg5 ATPase activity was measured using the ADP-Glo Kinase Assay kit (Promega, V9102). The assays were run using final concentrations of 5 nM full-length human N-terminal His-tag HSET or 4 nM GST-tagged Eg5 motor domain protein (Cytoskeleton, EG01) and an assay buffer containing 20 mM HEPES pH 6.8, 10 mM MgCl2, 0.25 mM EGTA, 0.4 mM Triton X-100, and 1 mM DTT. Preformed microtubules (Universal Biologicals Cambridge, bovine MT001-XL, or porcine MT002-XL), which were reconstituted in 15 mM PIPES pH 7, 1 mM MgCl2, and 20 μM paclitaxel, were present at a final assay concentration of 70 μg/mL. A reaction volume of 5 μL was used in Proxiplate 384 plus white assay plates (PerkinElmer, 6008280). To measure compound inhibition, 100 nL of compound dissolved in DMSO or DMSO alone was preincubated with the HSET and microtubules for 10 min before 3 μM Ultra-Pure ATP was added to start the ATPase reaction for the 3 μM ATP HSET assay. For the 500 μM ATP HSET assay, the addition of 500 μM Ultra-Pure ATP was used. For the Eg5 ATPase assay, 4.8 μM Ultra-Pure ATP was used. All reactions were incubated at 25 °C for 80 min and then stopped by the addition of 5 μL of the ADP-Glo reagent. 10 μL of Kinase Detection Reagent was then added after a further 45 min of incubation. The luminescence was read after 45 min on a PheraStar FSX plate reader (BMG Labtech). The data processing was performed using Dotmatics Studies software package. Percentage inhibition was determined based on normalization to high controls (0% inhibition, all reagents with 100 nL of DMSO alone) and low controls (100% inhibition […], without HSET). The IC50 values for each compound were determined using a four-parameter logistic curve fit of % inhibition versus concentration.
(In general: In ADP-Glo the light output rises with the ADP produced.)

For data set [4], the target named is T2, recombinant full-length HSET (Homo sapiens, UniProt Q9BW19).
T2 construct: 5 nM full-length human N-terminal His-tag HSET; His-tag (N)
T2 sequence (Q9BW19 1-673): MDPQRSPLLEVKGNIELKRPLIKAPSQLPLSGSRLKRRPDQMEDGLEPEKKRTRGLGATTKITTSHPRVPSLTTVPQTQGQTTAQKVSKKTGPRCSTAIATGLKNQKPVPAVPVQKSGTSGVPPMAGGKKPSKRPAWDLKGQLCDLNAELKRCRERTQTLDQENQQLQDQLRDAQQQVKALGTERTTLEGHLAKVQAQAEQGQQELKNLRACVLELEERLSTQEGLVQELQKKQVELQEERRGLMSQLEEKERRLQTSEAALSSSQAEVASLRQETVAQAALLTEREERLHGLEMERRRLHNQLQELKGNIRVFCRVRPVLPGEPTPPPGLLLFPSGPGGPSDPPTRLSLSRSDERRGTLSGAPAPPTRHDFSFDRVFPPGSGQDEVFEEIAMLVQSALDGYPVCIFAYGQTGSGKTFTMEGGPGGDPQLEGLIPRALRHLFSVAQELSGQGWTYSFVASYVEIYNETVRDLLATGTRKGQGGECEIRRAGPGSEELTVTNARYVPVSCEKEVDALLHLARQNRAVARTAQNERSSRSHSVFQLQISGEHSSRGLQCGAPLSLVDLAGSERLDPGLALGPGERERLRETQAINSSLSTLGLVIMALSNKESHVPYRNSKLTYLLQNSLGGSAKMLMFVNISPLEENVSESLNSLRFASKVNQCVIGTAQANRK
Description: ADP-Glo HSET assay (3 μM ATP), microtubule-stimulated ATPase. The data set is classed as biochemical. Conditions: for HSET inhibitory activity (in words): HSET ADP-Glo. How it is done: as §4

Where [5] appears, read: 15 μM, 4NCA DLD1 cells (Table 4).
Where [6] appears, read: 15 µM, 4NCA cells, supplementary CSV.
Setting [7] is: LE = −1.4Log(IC50 [M])/number of non-hydrogen atoms (Table 1).
Where [8] appears, read: LLE = −Log(IC50 [M]) – cLogP (MoKa) (Table 1).
Where [9] appears, read: preformed microtubules, 3 μM ATP, mean (±SD) n ≥ 3 (Table 4), read-out: HSET ADP-Glo IC50.
Where [10] appears, read: preformed microtubules, 3 μM ATP, mean (±SD) n ≥ 3, >200 from a single determination (Table 1), read-out: HSET ADP-Glo IC50.
The mark [11] stands for this setting: LE = −1.4Log(IC50 [M])/number of non-hydrogen atoms (Table 2).
[12] abbreviates: LLE = −Log(IC50 [M]) – cLogP (MoKa) (Table 2).
Where [13] appears, read: preformed microtubules, 3 μM ATP, mean (±SD) n ≥ 3, >200 from a single determination (Table 2), read-out: HSET ADP-Glo IC50.

Where two headings read alike, the source gives them in different places. Where only a bound is given, the exact number is not on record here.

The term inhibition denotes the relative decrease from the control value, in per cent. For the compound `CCOC(=O)c1sc(NC(=O)CCNC(=O)c2cccc(C)c2)nc1C` [Compound 2, Ethyl 4-Methyl-2-(3-(3-methylbenzamido)propanamido)thiazole-5-carboxylate], the “% multipolarity above baseline @ 15 μM (4NCA cells)” value in data set [1] (setting [5]) and in data set [1] (setting [6]) was 0% each time. Also, the “% Multipolarity above baseline @ 15 mM (4N cells)” value in data set [2] (15 μM) turned out to be 1%. Also, the “% multipolarity above baseline @ 15 μM (4N cells)” value in data set [2] was 1%. The IC50 in data set [3] was over 200 µM; in data set [4] (ATP concentration of 3 μM, read-out: HSET IC50), 2.7 µM; in data set [4] (ATP concentration of 150 μM, read-out: HSET IC50 at higher ATP concentration), 7.1 µM; in data set [4] (setting [9]), 2.73 µM; in data set [4] (setting [10]), 2.73 µM. The compound also came in with an inhibition at 200 µM in data set [3] (top concentration of 200 μM) of 10%. In addition, the “ligand efficiency (LE)” value in data set [4] worked out at 0.30. Moreover, the “lipophilic ligand efficiency (LLE)” value in data set [4] came to 2.5. Besides, in data set [4] (setting [7]), the LE is 0.30. In addition, the LLE in data set [4] (setting [8]) is given as 2.5.

Take `CCOC(=O)c1sc(NC(=O)CCNC(=O)c2cccc(-c3noc(C)n3)c2)nc1C` [Compound 13, Ethyl 4-Methyl-2-(3-(3-(5-methyl-1,2,4-oxadiazol-3-yl)benzamido)propanamido)thiazole-5-carboxylate]: the “% multipolarity above baseline @ 15 μM (4NCA cells)” value in data set [1] (setting [5]) and in data set [1] (setting [6]) was 9% in each case. Also, the “increase in mitotic spindle multipolarity (4NCA)” value in data set [1] (15 μM, centrosome-amplified (4NCA) DLD1 cell line) was about 10%. The “% Multipolarity above baseline @ 15 mM (4N cells)” value in data set [2] (15 μM) amounted to 1%. Also, in data set [2] (15 μM, non-centrosome amplified DLD1 (4N) cell line), the “effect on multipolar mitoses (4N), in words” value is “no increases in multipolar mitoses”. Also, the “% multipolarity above baseline @ 15 μM (4N cells)” value in data set [2] is reported as 1%. Besides, the figures for the IC50 in data set [3], in data set [4] (setting [9]) and in data set [4] (setting [10]) were over 200 µM, 0.063 µM and 0.063 µM, respectively. Moreover, the LE in data set [4] (setting [7]) was determined as 0.33. Further, in data set [4] (setting [8]), the LLE was 4.6.

Regarding `CCOC(=O)c1sc(NC(=O)CCNC(=O)c2cccc(-c3nc(C)no3)c2)nc1C` [Compound 17, Ethyl 4-Methyl-2-(3-(3-(3-methyl-1,2,4-oxadiazol-5-yl)benzamido)propanamido)thiazole-5-carboxylate], the LE in data set [4] (setting [7]) was found to be 0.32. Also, the LLE in data set [4] (setting [8]) came out at 4.3. The IC50 in data set [4] (setting [10]) is 0.101 µM.

As to `CCNC(=O)c1sc(NC(=O)CCNC(=O)c2cccc(C)c2)nc1C` [Compound 7, N-Ethyl-4-methyl-2-(3-(3-methylbenzamido)propanamido)thiazole-5-carboxamide], the “HSET inhibitory activity (in words)” value in data set [4] is “no activity”. For the same compound, the IC50 in data set [4] (setting [10]) was over 200 µM.

Regarding `CCOC(=O)c1sc(C(=O)NCCNC(=O)c2cccc(-c3noc(C)n3)c2)nc1C` [Compound 25, Ethyl 4-Methyl-2-((2-(3-(5-methyl-1,2,4-oxadiazol-3-yl)benzamido)ethyl)carbamoyl)thiazole-5-carboxylate], the LE in data set [4] (setting [11]) amounted to 0.29. Besides, the LLE in data set [4] (setting [12]) is listed as 3.9. Moreover, the IC50 in data set [4] (setting [13]) worked out at 0.405 µM. Moreover, the “fold reduction in HSET potency” value in data set [4] (relative to 13) is “six-fold”.

For the compound `CCOC(=O)c1sc(NC(=O)CCNC(=O)c2cccc(-c3n[nH]c(C)n3)c2)nc1C` [Compound 15, Ethyl 4-Methyl-2-(3-(3-(5-methyl-1H-1,2,4-triazol-3-yl)benzamido)propanamido)thiazole-5-carboxylate], the “HSET inhibitory activity (in words)” value in data set [4] is “eliminated potency”. For the same compound, the IC50 in data set [4] (setting [10]) was over 200 µM.

For `CCCOC(=O)c1cc(NC(=O)CCNC(=O)c2cccc(-c3noc(C)n3)c2)nn1C` [Compound 28, Propyl 1-Methyl-3-(3-(3-(5-methyl-1,2,4-oxadiazol-3-yl)benzamido)propanamido)-1H-pyrazole-5-carboxylate], the LE in data set [4] (setting [11]) was determined as 0.30. For the same compound, in data set [4] (setting [12]), the LLE worked out at 4.7. Moreover, in data set [4] (setting [13]), the IC50 amounted to 0.157 µM.

For the compound `CCOC(=O)c1sc(N(C)C(=O)CCNC(=O)c2cccc(-c3noc(C)n3)c2)nc1C` [Compound 23, Ethyl 4-Methyl-2-(N-methyl-3-(3-(5-methyl-1,2,4-oxadiazol-3-yl)benzamido)propanamido)thiazole-5-carboxylate], the LE in data set [4] (setting [11]) is 0.31. Also, the LLE in data set [4] (setting [12]) is recorded as 4.6. In addition, the IC50 in data set [4] (setting [13]) was determined as 0.089 µM.
